Data taken from ChEMBL document CHEMBL1828550, “Lead identification of β-lactam and related imine inhibitors of the molecular chaperone heat shock protein 90” (Bioorg Med Chem, 2011).
The source made the active and inactive calls. The rule behind the calls is not given here.

Key:
[1] = molecular target: T1, Heat shock protein HSP 90-alpha (Homo sapiens, UniProt P07900); test: Displacement of FITC-labeled geldanamycin from human recombinant HSP90alpha after 24 hrs by fluorescence displacement assay
MCF7 = test: Antiproliferative activity against human MCF7 cells assessed as cell viability after 72 hrs by MTT assay; assay type: functional, cell-based; conditions: MCF7, 72 h
[2] = molecular target: T1, Heat shock protein HSP 90-alpha; test: Inhibition of Hsp90alpha in human MCF7 assessed as induction of proteasomal ER2alpha protein degradation at 50 uM after 24 hrs by Western blot analysis relative to control
[3] = molecular target: T1, Heat shock protein HSP 90-alpha; test: Inhibition of Hsp90alpha in human MCF7 assessed as induction of proteasomal ER2alpha protein degradation at 100 uM after 24 hrs by Western blot analysis relative to control

SMILES	IC50 [1]	IC50 (MCF7)	Activity [2]	Activity [3]
COc1ccc([C@@H]2CC(=O)N2c2ccc3c(c2)OCCO3)c(OC)c1	> 200 µM	53 µM	–	–
CCc1cc([C@@H]2CC(=O)N2c2cc(OC)c(OC)c(OC)c2)c(O)cc1O	> 200 µM	31 µM	–	–
CCc1cc(/C=N/c2ccc3c(c2)OCCO3)c(O)cc1O	14.5 µM	> 100 µM	Active	–
CCc1cc([C@@H]2CC(=O)N2c2ccc3c(c2)OCCO3)c(O)cc1O	5.6 µM	48 µM	Active	Active
O=C1C[C@@H](c2ccc(O)cc2O)N1c1ccc2c(c1)OCCO2	> 200 µM	23 µM	–	–
CCc1cc([C@@H]2CC(=O)N2c2ccc(OC)cc2)c(O)cc1O	> 200 µM	52 µM	–	–
CCc1cc([C@@H]2[C@@H](c3ccccc3)C(=O)N2c2ccc3c(c2)OCCO3)c(O)cc1O	> 200 µM	> 100 µM	–	–
C=CCNC1=C2C[C@@H](C)C[C@H](OC)[C@H](O)[C@@H](C)/C=C(\C)[C@H](OC(N)=O)[C@@H](OC)/C=C\C=C(/C)C(=O)NC(=CC1=O)C2=O [TANESPIMYCIN]	–	0.09 µM	–	–
COc1ccc(OC)c([C@@H]2CC(=O)N2c2ccc3c(c2)OCCO3)c1	> 200 µM	54 µM	–	–
CCc1cc([C@@H]2CC(=O)N2c2ccc3c(c2)OCO3)c(O)cc1O	> 200 µM	31 µM	–	–
CCc1cc(/C=N/c2ccc3c(c2)OCO3)c(O)cc1O	22.1 µM	> 100 µM	Active	–
